Measured values as given in the NIST ThermoML archive (doi:10.1021/acs.jced.6b00396).

Experiment: xn = mol fraction of the nth substance listed
Conditions: Gas, isochoric method

C=C(F)C(F)(F)F [2,3,3,3-tetrafluoro-1-propene] + CCC
Conditions | specific volume [m3/kg]
268.15 K, 333 kPa, x2 = 0.709 | 0.095
273.15 K, 340.4 kPa, x2 = 0.709 | 0.095
278.15 K, 347.7 kPa, x2 = 0.709 | 0.095
278.15 K, 366.9 kPa, x2 = 0.505 | 0.072
283.15 K, 354.8 kPa, x2 = 0.709 | 0.095
283.15 K, 374.9 kPa, x2 = 0.505 | 0.072
288.13 K, 614.2 kPa, x2 = 0.611 | 0.047
288.15 K, 382.8 kPa, x2 = 0.505 | 0.072
288.16 K, 362 kPa, x2 = 0.709 | 0.095
288.16 K, 449 kPa, x2 = 0.23 | 0.048
293.15 K, 369.3 kPa, x2 = 0.709 | 0.095
293.15 K, 390.7 kPa, x2 = 0.505 | 0.072
293.15 K, 459.2 kPa, x2 = 0.23 | 0.048
293.17 K, 628.3 kPa, x2 = 0.611 | 0.047
298.15 K, 376.6 kPa, x2 = 0.709 | 0.095
298.15 K, 398.5 kPa, x2 = 0.505 | 0.072
298.15 K, 470.2 kPa, x2 = 0.23 | 0.048
298.15 K, 642.2 kPa, x2 = 0.611 | 0.047
298.15 K, 807.3 kPa, x2 = 0.839 | 0.047
303.15 K, 383.9 kPa, x2 = 0.709 | 0.095
303.15 K, 406.7 kPa, x2 = 0.505 | 0.072
303.15 K, 479.7 kPa, x2 = 0.23 | 0.048
303.15 K, 656.1 kPa, x2 = 0.611 | 0.047
303.15 K, 825.7 kPa, x2 = 0.839 | 0.047
308.15 K, 391 kPa, x2 = 0.709 | 0.095
308.15 K, 414.4 kPa, x2 = 0.505 | 0.072
308.15 K, 489.4 kPa, x2 = 0.23 | 0.048
308.15 K, 669.8 kPa, x2 = 0.611 | 0.047
308.15 K, 844 kPa, x2 = 0.839 | 0.047
313.15 K, 398.2 kPa, x2 = 0.709 | 0.095
313.15 K, 422.1 kPa, x2 = 0.505 | 0.072
313.15 K, 499.1 kPa, x2 = 0.23 | 0.048
313.15 K, 683.5 kPa, x2 = 0.611 | 0.047
313.15 K, 862.2 kPa, x2 = 0.839 | 0.047
318.15 K, 405.3 kPa, x2 = 0.709 | 0.095
318.15 K, 429.8 kPa, x2 = 0.505 | 0.072
318.15 K, 508.7 kPa, x2 = 0.23 | 0.048
318.15 K, 697.1 kPa, x2 = 0.611 | 0.047
318.15 K, 880.3 kPa, x2 = 0.839 | 0.047
323.15 K, 412.4 kPa, x2 = 0.709 | 0.095
323.15 K, 437.5 kPa, x2 = 0.505 | 0.072
323.15 K, 518.3 kPa, x2 = 0.23 | 0.048
323.15 K, 710.9 kPa, x2 = 0.611 | 0.047
323.15 K, 898.3 kPa, x2 = 0.839 | 0.047
328.15 K, 419.5 kPa, x2 = 0.709 | 0.095
328.15 K, 445.3 kPa, x2 = 0.505 | 0.072
328.15 K, 527.8 kPa, x2 = 0.23 | 0.048
328.15 K, 724.4 kPa, x2 = 0.611 | 0.047
328.15 K, 916.2 kPa, x2 = 0.839 | 0.047
333.15 K, 426.6 kPa, x2 = 0.709 | 0.095
333.15 K, 452.9 kPa, x2 = 0.505 | 0.072
333.15 K, 537.3 kPa, x2 = 0.23 | 0.048
333.15 K, 737.9 kPa, x2 = 0.611 | 0.047
333.15 K, 934 kPa, x2 = 0.839 | 0.047
338.15 K, 433.8 kPa, x2 = 0.709 | 0.095
338.15 K, 460.5 kPa, x2 = 0.505 | 0.072
338.15 K, 546.7 kPa, x2 = 0.23 | 0.048
338.15 K, 751.3 kPa, x2 = 0.611 | 0.047
338.15 K, 951.8 kPa, x2 = 0.839 | 0.047
343.15 K, 440.8 kPa, x2 = 0.709 | 0.095
343.15 K, 468.1 kPa, x2 = 0.505 | 0.072
343.15 K, 556.2 kPa, x2 = 0.23 | 0.048
343.15 K, 764.6 kPa, x2 = 0.611 | 0.047
343.15 K, 969.5 kPa, x2 = 0.839 | 0.047
348.14 K, 778 kPa, x2 = 0.611 | 0.047
348.15 K, 447.9 kPa, x2 = 0.709 | 0.095
348.15 K, 475.6 kPa, x2 = 0.505 | 0.072
348.15 K, 565.8 kPa, x2 = 0.23 | 0.048
348.15 K, 987.1 kPa, x2 = 0.839 | 0.047
353.15 K, 454.9 kPa, x2 = 0.709 | 0.095
353.15 K, 483.2 kPa, x2 = 0.505 | 0.072
353.15 K, 575.1 kPa, x2 = 0.23 | 0.048
353.15 K, 791.3 kPa, x2 = 0.611 | 0.047
353.15 K, 1004.6 kPa, x2 = 0.839 | 0.047
358.15 K, 462 kPa, x2 = 0.709 | 0.095
358.15 K, 490.8 kPa, x2 = 0.505 | 0.072
358.15 K, 584.5 kPa, x2 = 0.23 | 0.048
358.15 K, 804.5 kPa, x2 = 0.611 | 0.047
358.15 K, 1022.2 kPa, x2 = 0.839 | 0.047
363.15 K, 469 kPa, x2 = 0.709 | 0.095
363.15 K, 498.3 kPa, x2 = 0.505 | 0.072
363.15 K, 593.8 kPa, x2 = 0.23 | 0.048
363.15 K, 817.7 kPa, x2 = 0.611 | 0.047
363.16 K, 1039.6 kPa, x2 = 0.839 | 0.047

F/C=C(\F)C(F)(F)F [(Z)-1,2,3,3,3-pentafluoro-1-propene] + CCC
Conditions | specific volume [m3/kg]
303.15 K, 459.8 kPa, x2 = 0.855 | 0.09
303.15 K, 722.5 kPa, x2 = 0.593 | 0.038
308.15 K, 412.6 kPa, x2 = 0.516 | 0.067
308.15 K, 468.5 kPa, x2 = 0.855 | 0.09
308.15 K, 491.5 kPa, x2 = 0.225 | 0.042
308.15 K, 738.6 kPa, x2 = 0.593 | 0.038
308.15 K, 946.2 kPa, x2 = 0.69 | 0.032
313.15 K, 420.3 kPa, x2 = 0.516 | 0.067
313.15 K, 477.3 kPa, x2 = 0.855 | 0.09
313.15 K, 501.4 kPa, x2 = 0.225 | 0.042
313.15 K, 754.6 kPa, x2 = 0.593 | 0.038
313.15 K, 968.3 kPa, x2 = 0.69 | 0.032
318.15 K, 428 kPa, x2 = 0.516 | 0.067
318.15 K, 486 kPa, x2 = 0.855 | 0.09
318.15 K, 511.5 kPa, x2 = 0.225 | 0.042
318.15 K, 770.3 kPa, x2 = 0.593 | 0.038
318.15 K, 990.1 kPa, x2 = 0.69 | 0.032
323.15 K, 435.7 kPa, x2 = 0.516 | 0.067
323.15 K, 494.7 kPa, x2 = 0.855 | 0.09
323.15 K, 521.2 kPa, x2 = 0.225 | 0.042
323.15 K, 786.1 kPa, x2 = 0.593 | 0.038
323.15 K, 1011.5 kPa, x2 = 0.69 | 0.032
328.15 K, 443.4 kPa, x2 = 0.516 | 0.067
328.15 K, 503.4 kPa, x2 = 0.855 | 0.09
328.15 K, 531.1 kPa, x2 = 0.225 | 0.042
328.15 K, 801.7 kPa, x2 = 0.593 | 0.038
328.15 K, 1033 kPa, x2 = 0.69 | 0.032
333.15 K, 451 kPa, x2 = 0.516 | 0.067
333.15 K, 512.1 kPa, x2 = 0.855 | 0.09
333.15 K, 540.8 kPa, x2 = 0.225 | 0.042
333.15 K, 817.3 kPa, x2 = 0.593 | 0.038
333.15 K, 1054.4 kPa, x2 = 0.69 | 0.032
338.15 K, 458.7 kPa, x2 = 0.516 | 0.067
338.15 K, 520.9 kPa, x2 = 0.855 | 0.09
338.15 K, 550.6 kPa, x2 = 0.225 | 0.042
338.15 K, 832.7 kPa, x2 = 0.593 | 0.038
338.15 K, 1075.7 kPa, x2 = 0.69 | 0.032
343.15 K, 466.6 kPa, x2 = 0.516 | 0.067
343.15 K, 529.5 kPa, x2 = 0.855 | 0.09
343.15 K, 560.3 kPa, x2 = 0.225 | 0.042
343.15 K, 848.1 kPa, x2 = 0.593 | 0.038
343.15 K, 1096.9 kPa, x2 = 0.69 | 0.032
348.15 K, 474.1 kPa, x2 = 0.516 | 0.067
348.15 K, 538.1 kPa, x2 = 0.855 | 0.09
348.15 K, 570 kPa, x2 = 0.225 | 0.042
348.15 K, 863.4 kPa, x2 = 0.593 | 0.038
348.15 K, 1118 kPa, x2 = 0.69 | 0.032
353.15 K, 481.7 kPa, x2 = 0.516 | 0.067
353.15 K, 546.7 kPa, x2 = 0.855 | 0.09
353.15 K, 580.1 kPa, x2 = 0.225 | 0.042
353.15 K, 878.7 kPa, x2 = 0.593 | 0.038
353.15 K, 1139.2 kPa, x2 = 0.69 | 0.032
358.15 K, 489.3 kPa, x2 = 0.516 | 0.067
358.15 K, 555.3 kPa, x2 = 0.855 | 0.09
358.15 K, 589.7 kPa, x2 = 0.225 | 0.042
358.15 K, 893.9 kPa, x2 = 0.593 | 0.038
358.15 K, 1160 kPa, x2 = 0.69 | 0.032
363.15 K, 496.8 kPa, x2 = 0.516 | 0.067
363.15 K, 563.9 kPa, x2 = 0.855 | 0.09
363.15 K, 909 kPa, x2 = 0.593 | 0.038
363.15 K, 1180.9 kPa, x2 = 0.69 | 0.032
363.16 K, 599.3 kPa, x2 = 0.225 | 0.042
